Source: US12077503B2, “Substituted cyclic amides and their use as herbicides” (FMC CORPORATION, priority 2015, dated 2024)

Experiments:
Format in all cases: in vivo
[1] = tested on: giant foxtail (Setaria faberi); test: Test G Pre-Emergence Protocol; details: Setaria faberi, pre-emergence, 312 h, evaluated after 13 days; for pest or weed control at 15.625 g/ha: 15.625 g ai/ha; for pest or weed control at 15.625 g/ha / pest or weed control at 250 g/ha: read-out: Foxtail, Giant damage rating (100=total damage to plant; 0=no damage to plant); for pest or weed control at 62.5 g/ha: 62.5 g ai/ha, 100=total damage to plant, 0=no damage to plant, read-out: Foxtail, Giant damage rating; for pest or weed control at 250 g/ha: 250 g ai/ha
Method in brief: (§1)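 Scores are visual damage ratings from 0 (no damage) to 100 (total plant kill), taken 13 days after treatment. Compound was sprayed one day post-sowing at 15.625, 62.5 or 250 g/ha in 50:50 acetone/water with 0.5% Tween 20.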

corn (Zea mays) [2] = test: Test G Pre-Emergence Protocol; details: Zea mays, pre-emergence, 312 h, evaluated after 13 days; for plant injury at 15.625 g/ha: 15.625 g ai/ha; for plant injury at 15.625 g/ha / plant injury at 250 g/ha: read-out: Corn damage rating (100=total damage to plant; 0=no damage to plant); for plant injury at 62.5 g/ha: 62.5 g ai/ha, 100=total damage to plant, 0=no damage to plant, read-out: Corn damage rating; for plant injury at 250 g/ha: 250 g ai/ha
Method in brief: as §1

[3] = tested on: redroot pigweed (Amaranthus retroflexus); test: Test G Pre-Emergence Protocol; details: Amaranthus retroflexus, pre-emergence, 312 h, evaluated after 13 days; for pest or weed control at 15.625 g/ha: 15.625 g ai/ha; for pest or weed control at 15.625 g/ha / pest or weed control at 250 g/ha: read-out: Pigweed, Redroot damage rating (100=total damage to plant; 0=no damage to plant); for pest or weed control at 62.5 g/ha: 62.5 g ai/ha, 100=total damage to plant, 0=no damage to plant, read-out: Pigweed, Redroot damage rating; for pest or weed control at 250 g/ha: 250 g ai/ha
Method in brief: as §1

[4] = tested on: ivy-leaved morning glory (Ipomoea hederacea); test: Test G Pre-Emergence Protocol; details: Ipomoea, pre-emergence, 312 h, evaluated after 13 days; for pest or weed control at 15.625 g/ha: 15.625 g ai/ha; for pest or weed control at 15.625 g/ha / pest or weed control at 250 g/ha: read-out: Morningglory, Ivy-leaved damage rating (100=total damage to plant; 0=no damage to plant); for pest or weed control at 62.5 g/ha: 62.5 g ai/ha, 100=total damage to plant, 0=no damage to plant, read-out: Morningglory, Ivy-leaved damage rating; for pest or weed control at 250 g/ha: 250 g ai/ha
Method in brief: as §1

[5] = tested on: barnyardgrass (Echinochloa crus-galli); test: Test G Pre-Emergence Protocol; details: Echinochloa crus-galli, pre-emergence, 312 h, evaluated after 13 days; for pest or weed control at 15.625 g/ha: 15.625 g ai/ha; for pest or weed control at 15.625 g/ha / pest or weed control at 250 g/ha: read-out: Barnyardgrass damage rating (100=total damage to plant; 0=no damage to plant); for pest or weed control at 62.5 g/ha: 62.5 g ai/ha, 100=total damage to plant, 0=no damage to plant, read-out: Barnyardgrass damage rating; for pest or weed control at 250 g/ha: 250 g ai/ha
Method in brief: as §1

[6] = tested on: velvetleaf (Abutilon theophrasti); test: Test G Pre-Emergence Protocol; details: Abutilon theophrasti, pre-emergence, 312 h, evaluated after 13 days; for pest or weed control at 15.625 g/ha: 15.625 g ai/ha; for pest or weed control at 15.625 g/ha / pest or weed control at 250 g/ha: read-out: Velvetleaf damage rating (100=total damage to plant; 0=no damage to plant); for pest or weed control at 62.5 g/ha: 62.5 g ai/ha, 100=total damage to plant, 0=no damage to plant, read-out: Velvetleaf damage rating; for pest or weed control at 250 g/ha: 250 g ai/ha
Method in brief: as §1

[7] = tested on: giant foxtail (Setaria faberi); test: Test G Post-Emergence Protocol; details: Setaria faberi, post-emergence, 312 h, read-out: Foxtail, Giant damage rating; for pest or weed control at 15.625 g/ha: 15.625 g ai/ha, evaluated after 13 days (100=total damage to plant; 0=no damage to plant); for pest or weed control at 62.5 g/ha: 62.5 g ai/ha; for pest or weed control at 62.5 g/ha / pest or weed control at 250 g/ha: evaluated after 13 days, 100=total damage to plant, 0=no damage to plant; for pest or weed control at 250 g/ha: 250 g ai/ha
Method in brief: (§2)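 Foliar application was made 8 days after sowing, using an aqueous spray of the active in acetone/water (50:50) with 0.5% Tween 20, at doses of 15.625, 62.5 or 250 g/ha. Injury was assessed 13 days later, where 100 meant the plant was fully damaged.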

corn (Zea mays) [8] = test: Test G Post-Emergence Protocol; details: Zea mays, post-emergence, 312 h, read-out: Corn damage rating; for plant injury at 15.625 g/ha: 15.625 g ai/ha, evaluated after 13 days (100=total damage to plant; 0=no damage to plant); for plant injury at 62.5 g/ha: 62.5 g ai/ha; for plant injury at 62.5 g/ha / plant injury at 250 g/ha: evaluated after 13 days, 100=total damage to plant, 0=no damage to plant; for plant injury at 250 g/ha: 250 g ai/ha
Method in brief: as §2

[9] = tested on: redroot pigweed (Amaranthus retroflexus); test: Test G Post-Emergence Protocol; details: Amaranthus retroflexus, post-emergence, 312 h, read-out: Pigweed, Redroot damage rating; for pest or weed control at 15.625 g/ha: 15.625 g ai/ha, evaluated after 13 days (100=total damage to plant; 0=no damage to plant); for pest or weed control at 62.5 g/ha: 62.5 g ai/ha; for pest or weed control at 62.5 g/ha / pest or weed control at 250 g/ha: evaluated after 13 days, 100=total damage to plant, 0=no damage to plant; for pest or weed control at 250 g/ha: 250 g ai/ha
Method in brief: as §2

[10] = tested on: ivy-leaved morning glory (Ipomoea hederacea); test: Test G Post-Emergence Protocol; details: Ipomoea, post-emergence, 312 h, read-out: Morningglory, Ivy-leaved damage rating; for pest or weed control at 15.625 g/ha: 15.625 g ai/ha, evaluated after 13 days (100=total damage to plant; 0=no damage to plant); for pest or weed control at 62.5 g/ha: 62.5 g ai/ha; for pest or weed control at 62.5 g/ha / pest or weed control at 250 g/ha: evaluated after 13 days, 100=total damage to plant, 0=no damage to plant; for pest or weed control at 250 g/ha: 250 g ai/ha
Method in brief: as §2

[11] = tested on: barnyardgrass (Echinochloa crus-galli); test: Test G Post-Emergence Protocol; details: Echinochloa crus-galli, post-emergence, 312 h, read-out: Barnyardgrass damage rating; for pest or weed control at 15.625 g/ha: 15.625 g ai/ha, evaluated after 13 days (100=total damage to plant; 0=no damage to plant); for pest or weed control at 62.5 g/ha: 62.5 g ai/ha; for pest or weed control at 62.5 g/ha / pest or weed control at 250 g/ha: evaluated after 13 days, 100=total damage to plant, 0=no damage to plant; for pest or weed control at 250 g/ha: 250 g ai/ha
Method in brief: as §2

[12] = tested on: velvetleaf (Abutilon theophrasti); test: Test G Post-Emergence Protocol; details: Abutilon theophrasti, post-emergence, 312 h, read-out: Velvetleaf damage rating; for pest or weed control at 15.625 g/ha: 15.625 g ai/ha, evaluated after 13 days (100=total damage to plant; 0=no damage to plant); for pest or weed control at 62.5 g/ha: 62.5 g ai/ha; for pest or weed control at 62.5 g/ha / pest or weed control at 250 g/ha: evaluated after 13 days, 100=total damage to plant, 0=no damage to plant; for pest or weed control at 250 g/ha: 250 g ai/ha
Method in brief: as §2

Row | Compound | pest or weed control at 15.625 g/ha [1] [%] | pest or weed control at 62.5 g/ha [1] [%] | pest or weed control at 250 g/ha [1] [%] | plant injury at 15.625 g/ha (corn (Zea mays) [2]) [%] | plant injury at 62.5 g/ha (corn (Zea mays) [2]) [%] | plant injury at 250 g/ha (corn (Zea mays) [2]) [%] | pest or weed control at 15.625 g/ha [3] [%] | pest or weed control at 62.5 g/ha [3] [%] | pest or weed control at 250 g/ha [3] [%] | pest or weed control at 15.625 g/ha [4] [%] | pest or weed control at 62.5 g/ha [4] [%] | pest or weed control at 250 g/ha [4] [%] | pest or weed control at 15.625 g/ha [5] [%] | pest or weed control at 62.5 g/ha [5] [%] | pest or weed control at 250 g/ha [5] [%] | pest or weed control at 15.625 g/ha [6] [%] | pest or weed control at 62.5 g/ha [6] [%] | pest or weed control at 250 g/ha [6] [%] | pest or weed control at 15.625 g/ha [7] [%] | pest or weed control at 62.5 g/ha [7] [%] | also measured
1 | Cc1cc(C)cc([C@H]2CN(C)C(=O)[C@@H]2C(=O)Nc2ccccc2S(C)(=O)=O)c1 (racemic) [Compound 1727] | 50 | 60 | 80 | 0 | 0 | 0 | 0 | 0 | 30 | 0 | 0 | 10 | 30 | 40 | 80 | 0 | 0 | 0 | 30 | 80 | pest or weed control at 250 g/ha [7]: 80%; plant injury at 15.625 g/ha (corn (Zea mays) [8]): 0%; plant injury at 62.5 g/ha (corn (Zea mays) [8]): 0%; plant injury at 250 g/ha (corn (Zea mays) [8]): 10%; pest or weed control at 15.625 g/ha [9]: 0%; pest or weed control at 62.5 g/ha [9]: 0%; pest or weed control at 250 g/ha [9]: 0%; pest or weed control at 15.625 g/ha [10]: 0%; pest or weed control at 62.5 g/ha [10]: 30%; pest or weed control at 250 g/ha [10]: 50%; pest or weed control at 15.625 g/ha [11]: 20%; pest or weed control at 62.5 g/ha [11]: 70%; pest or weed control at 250 g/ha [11]: 70%; pest or weed control at 15.625 g/ha [12]: 0%; pest or weed control at 62.5 g/ha [12]: 0%; pest or weed control at 250 g/ha [12]: 10%
2 | Cc1c(F)cccc1NC(=O)[C@@H]1C(=O)N(C)C[C@H]1c1cccc(OCC2CC2)c1 (racemic) [Compound 1766] | 30 | 70 | 70 | 20 | 10 | 20 | 0 | 0 | 0 | 0 | 0 | 0 | 10 | 60 | 80 | 0 | 0 | 10 | 20 | 50 | pest or weed control at 250 g/ha [7]: 80%; plant injury at 15.625 g/ha (corn (Zea mays) [8]): 30%; plant injury at 62.5 g/ha (corn (Zea mays) [8]): 20%; plant injury at 250 g/ha (corn (Zea mays) [8]): 60%; pest or weed control at 15.625 g/ha [9]: 0%; pest or weed control at 62.5 g/ha [9]: 0%; pest or weed control at 250 g/ha [9]: 20%; pest or weed control at 15.625 g/ha [10]: 0%; pest or weed control at 62.5 g/ha [10]: 20%; pest or weed control at 250 g/ha [10]: 40%; pest or weed control at 15.625 g/ha [11]: 60%; pest or weed control at 62.5 g/ha [11]: 30%; pest or weed control at 250 g/ha [11]: 80%; pest or weed control at 15.625 g/ha [12]: 0%; pest or weed control at 62.5 g/ha [12]: 0%; pest or weed control at 250 g/ha [12]: 10%
